According to patent publication US6147100A, “Pyrrolidine derivatives having phospholipase A2 inhibitory activity” (Shionogi & Co., Ltd., priority 1997, dated 2000):

Columns and labels:
[1] = target: T1, cPLA2 (Homo sapiens, UniProt P47712); experiment: cPLA2 Inhibitory Activity; type: biochemical; conditions: 1-palmitoyl-2-[14C]-arachidonoyl-sn-glycero-3-phosphocholine 2.5 μM, sn-1,2-dioleoylglycerol 1.25 μM; pH 7.5, 15 min at 37° C.
T1 sequence (P47712 1-749): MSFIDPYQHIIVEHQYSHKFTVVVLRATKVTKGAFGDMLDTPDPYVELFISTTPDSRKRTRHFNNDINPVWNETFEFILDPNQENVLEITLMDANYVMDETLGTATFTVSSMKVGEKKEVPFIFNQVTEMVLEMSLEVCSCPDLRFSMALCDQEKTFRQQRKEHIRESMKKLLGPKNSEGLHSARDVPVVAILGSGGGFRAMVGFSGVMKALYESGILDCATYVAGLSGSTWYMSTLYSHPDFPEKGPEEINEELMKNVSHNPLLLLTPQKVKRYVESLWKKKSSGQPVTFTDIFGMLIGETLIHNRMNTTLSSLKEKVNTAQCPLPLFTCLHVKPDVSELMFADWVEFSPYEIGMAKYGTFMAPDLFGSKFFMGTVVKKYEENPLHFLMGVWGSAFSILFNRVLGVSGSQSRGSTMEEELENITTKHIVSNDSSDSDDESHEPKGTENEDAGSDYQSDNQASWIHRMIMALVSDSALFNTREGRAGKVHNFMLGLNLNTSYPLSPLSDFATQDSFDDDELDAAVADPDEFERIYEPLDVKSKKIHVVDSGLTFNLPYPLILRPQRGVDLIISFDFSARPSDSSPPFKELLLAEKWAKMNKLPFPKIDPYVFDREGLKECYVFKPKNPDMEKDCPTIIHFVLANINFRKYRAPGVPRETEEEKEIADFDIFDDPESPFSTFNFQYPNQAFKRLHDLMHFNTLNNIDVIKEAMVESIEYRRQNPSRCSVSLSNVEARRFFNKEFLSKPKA
Experimental: Test Example 1 cPLA2 Inhibitory Activity The compounds of the present invention were tested for the cPLA2 inhibitory activity according to the method disclosed in […]. Roberts, […], and J. E. Putnam, J. Biol. Chem., 1991, 266, 5268-5272 as outlined below. […] The reaction mixture includes 50 mM HEPES buffer (pH 7.5), 1 mM calcium chloride, 150 mM sodium chloride, 0.1 mg/ml bovine serum albumin, and 1.7 mM dithiothreitol. To the reaction mixture was added the compound of the present invention and the substrate solution. The reaction was allowed to start by adding an enzyme and continued for 15 min at 37° C. The fatty acids released by the reaction were extracted by the method described in V. P. Dole, and H. Meinertz, J. Biol. Chem., 1960, 235, 2595-2599 and its radiation activity was measured on a liquid scintillation counter. Control was obtained by conducting the experiment in the same manner except that a compound of the present invention was not added.

[2] = tested on: production of prostaglandin E2 by human fibroblasts; experiment: Inhibition of Production of Prostaglandin E2 in Human Fibroblasts (IL-1 stimulation); type: cell-based; conditions: Fibroblast; human fibroblasts under stimulation with IL-1
Experimental: Test Example 2 Inhibition of Production of Prostaglandin E2 in Human Fibroblasts.
In order to examine the availability of the composition for inhibiting cytosolic phospholipase A2 (cPLA2) on the cells, the compounds of the present invention were tested for the effect on the production of prostaglandin E2 by human fibroblasts under the stimulation with IL-1 according to the method of J. M. Dayer et al (CACHECTIN/TUMOR NECROSIS FACTOR STIMULATES COLLAGENASE AND PROSTAGLANDIN E2 PRODUCTION BY HUMAN SYNOVIAL CELLS AND DERMAL FIBROBLASTS; J. M. Dayer, B, Beutler and A, Cerami, J. EXP. Med., 1985, 162, 2163-2168.).

Compound | IC50 [1] | IC50 [2]
O=C1NC(=O)/C(=C/c2ccc(C(=O)NC[C@@H]3C[C@@H](Oc4ccc5ccccc5c4-c4ccccc4)CN3C(=O)c3ccccc3C(=O)c3ccc(F)cc3)cc2)S1 [Compound A-86] | 28 nM | 93 nM
O=C1NC(=O)/C(=C/c2ccc(C(=O)NC[C@@H]3C[C@@H](OCc4ccccc4-c4ccccc4)CN3C(=O)C3CCCCC3C(=O)c3ccccc3)cc2)S1 (stereo partly drawn) [Compound A-10] | 3200 nM | 470 nM
O=C1NC(=O)/C(=C/c2ccc(C(=O)NC[C@@H]3C[C@@H](OCc4ccccc4-c4ccccc4)CN3C(=O)c3ncccc3C(=O)c3ccccc3)cc2)S1 [Compound A-11] | 860 nM | 230 nM
O=C1NC(=O)/C(=C/c2ccc(C(=O)NC[C@@H]3C[C@@H](OCc4ccccc4-c4cccs4)CN3C(=O)c3ccccc3C(=O)c3ccc(F)cc3)cc2)S1 [Compound A-37] | 73 nM | 280 nM
O=C1NC(=O)/C(=C/c2ccc(C(=O)NC[C@@H]3C[C@@H](OCc4ccccc4)CN3C(=O)c3ccccc3C(=O)c3ccccc3)cc2)S1 [Compound A-2] | 1200 nM | 730 nM
O=C1NC(=O)/C(=C/c2ccc(S(=O)(=O)NC[C@@H]3C[C@@H](OCc4ccccc4-c4ccccc4)CN3C(=O)c3ccccc3C(=O)c3ccc(F)cc3)s2)S1 [Compound A-60] | 1300 nM | 1300 nM
O=C1NC(=O)/C(=C/c2ccc(C(=O)NC[C@@H]3C[C@@H](Oc4ccc5cc(-c6ccccc6)ccc5c4)CN3C(=O)c3ccccc3C(=O)c3ccc(F)cc3)cc2)S1 [Compound A-79] | 20 nM | 310 nM
O=C1NC(=O)/C(=C/c2ccc(C(=O)NC[C@@H]3C[C@@H](OCc4ccccc4-c4cccc(C(F)(F)F)c4)CN3C(=O)c3ccccc3C(=O)c3ccc(F)cc3)cc2)S1 [Compound A-44] | 57 nM | 550 nM
O=C1NC(=O)/C(=C/c2ccc(CCC[C@@H]3C[C@@H](OCc4ccccc4-c4ccccc4)CN3C(=O)c3ccccc3C(=O)c3ccc(F)cc3)cc2)S1 [Compound E-9] | 1000 nM | 6500 nM
O=C1NC(=O)/C(=C/c2ccc(C(=O)NC[C@@H]3C[C@@H](Oc4ccccc4-c4ccc5ccccc5c4)CN3C(=O)c3ccccc3C(=O)c3ccc(F)cc3)cc2)S1 [Compound A-95] | 76 nM | 390 nM
O=C1NC(=S)S/C1=C\c1ccc(S(=O)(=O)NC[C@@H]2C[C@@H](OCc3ccccc3-c3ccccc3)CN2C(=O)c2ccccc2C(=O)c2ccc(F)cc2)cc1 [Compound A-63] | – | 900 nM
O=C1NC(=S)S/C1=C\c1ccc(S(=O)(=O)NC[C@@H]2C[C@@H](OCc3ccccc3-c3ccccc3)CN2C(=O)c2ccccc2C(=O)c2ccc(F)cc2)s1 [Compound A-61] | – | 970 nM
CC(C)Cc1cccc(-c2ccccc2)c1O[C@@H]1C[C@@H](CNC(=O)c2ccc(/C=C3\SC(=O)NC3=O)cc2)N(C(=O)c2ccccc2C(=O)c2ccc(F)cc2)C1 [Compound A-124] | 24 nM | –
O=C1NC(=O)/C(=C/c2ccc(C(=O)NC[C@@H]3C[C@@H](OCc4cccc(-c5ccc6ccccc6c5)c4)CN3C(=O)c3ccccc3C(=O)c3ccc(F)cc3)cc2)S1 [Compound A-42] | 140 nM | –
CC(C)Cc1cccc(-c2ccccc2C(C)C)c1O[C@@H]1C[C@@H](CNC(=O)c2ccc(/C=C3\SC(=O)NC3=O)cc2)N(C(=O)c2ccccc2C(=O)c2ccc(F)cc2)C1 [Compound A-126] | 5.5 nM | –
CC(=O)Nc1ccccc1C(=O)c1ccccc1C(=O)N1C[C@H](OCc2ccccc2-c2ccccc2)C[C@H]1CNC(=O)c1ccc(/C=C2\SC(=O)NC2=O)cc1 [Compound A-24] | 5800 nM | –
C/C(=C/C(=O)c1ccccc1)C(=O)N1C[C@H](OCc2ccccc2-c2ccccc2)C[C@H]1CNC(=O)c1ccc(/C=C2\SC(=O)NC2=O)cc1 [Compound A-9] | 5500 nM | –
CCOc1cccc(-c2ccccc2O[C@@H]2C[C@@H](CNC(=O)c3ccc(/C=C4\SC(=O)NC4=O)cc3)N(C(=O)c3ccccc3C(=O)c3ccc(F)cc3)C2)c1 [Compound A-110] | 100 nM | –
O=C1NC(=S)S/C1=C\c1ccc(/C=C/[C@@H]2C[C@@H](OCc3ccccc3-c3ccccc3)CN2C(=O)c2ccccc2C(=O)c2ccc(F)cc2)s1 [Compound E-7] | 1600 nM | –
O=C1NC(=S)S/C1=C\c1ccc(/C=C\C[C@@H]2C[C@@H](OCc3ccccc3-c3ccccc3)CN2C(=O)c2ccccc2C(=O)c2ccc(F)cc2)cc1 [Compound E-11] | 320 nM | –
CC(C)c1cccc(Br)c1O[C@@H]1C[C@@H](CNC(=O)c2ccc(/C=C3\SC(=O)NC3=O)cc2)N(C(=O)c2ccccc2C(=O)c2ccc(F)cc2)C1 [Compound A-100] | – | 320 nM
CC(C)Oc1ccccc1-c1ccccc1O[C@@H]1C[C@@H](CNC(=O)c2ccc(/C=C3\SC(=O)NC3=O)cc2)N(C(=O)c2ccccc2C(=O)c2ccc(F)cc2)C1 [Compound A-121] | 65 nM | –
O=C(/C=C/C#C/C=C1\SC(=O)NC1=O)NC[C@@H]1C[C@@H](OCc2ccccc2-c2ccccc2)CN1C(=O)c1ccccc1C(=O)c1ccc(F)cc1 [Compound A-66] | 210 nM | –
O=C1NC(=O)/C(=C/c2ccc(C(=O)NC[C@@H]3C[C@@H](Oc4ccccc4-c4ccc(-c5ccccc5)cc4)CN3C(=O)c3ccccc3C(=O)c3ccc(F)cc3)cc2)S1 [Compound A-113] | 120 nM | –
Nc1cccc(-c2ccccc2CO[C@@H]2C[C@@H](CNC(=O)c3ccc(/C=C4\SC(=O)NC4=O)cc3)N(C(=O)c3ccccc3C(=O)c3ccc(F)cc3)C2)c1 [Compound A-46] | 150 nM | –

Further lines, with some results ahead:

IC50 [1] | Compound | IC50 [2]
100 nM | CC(C)CN(Cc1ccccc1)[C@@H]1C[C@@H](CNC(=O)c2ccc(/C=C3\SC(=O)NC3=O)cc2)N(C(=O)c2ccccc2C(=O)c2ccc(F)cc2)C1 [Compound M-5] | 3000 nM
2000 nM | O=C1NC(=O)/C(=C/c2ccc(C(=O)NC[C@@H]3C[C@@H](NC(=O)c4ccccc4-c4ccccc4)CN3C(=O)c3ccccc3C(=O)c3ccc(F)cc3)cc2)S1 [Compound M-16] | –
4700 nM | O=C1NC(=O)/C(=C/c2ccc(C(=O)NCC[C@@H]3C[C@@H](OCc4ccccc4-c4ccccc4)CN3C(=O)c3ccccc3C(=O)c3ccc(F)cc3)cc2)S1 [Compound F-2] | –
5600 nM | CN(C(=O)C[C@@H]1C[C@@H](OCc2ccccc2-c2ccccc2)CN1C(=O)c1ccccc1C(=O)c1ccc(F)cc1)c1ccc(/C=C2\SC(=O)NC2=O)cc1 [Compound G-13] | –
1500 nM | CN(Cc1ccccc1)[C@@H]1C[C@@H](CNC(=O)c2ccc(/C=C3\SC(=O)NC3=O)cc2)N(C(=O)c2ccccc2C(=O)c2ccc(F)cc2)C1 [Compound M-1] | –
13000 nM | O=C1NC(=S)S/C1=C\C1CCN(C(=O)[C@@H]2C[C@@H](SCc3ccccc3-c3ccccc3)CN2C(=O)c2ccccc2C(=O)c2ccc(F)cc2)CC1 [Compound J-6] | –
1600 nM | CC(=O)N(Cc1ccc(/C=C2\SC(=S)NC2=O)cc1)C[C@@H]1C[C@@H](OCc2ccccc2-c2ccccc2)CN1C(=O)c1ccccc1C(=O)c1ccc(F)cc1 [Compound G-5] | –
150 nM | CC(C)CN(CC(C)C)[C@@H]1C[C@@H](CNC(=O)c2ccc(/C=C3\SC(=O)NC3=O)cc2)N(C(=O)c2ccccc2C(=O)c2ccc(F)cc2)C1 [Compound M-15] | –
3300 nM | CN(Cc1ccc(/C=C2\SC(=O)NC2=O)cc1)C[C@@H]1C[C@@H](OCc2ccccc2-c2ccccc2)CN1C(=O)c1ccccc1C(=O)c1ccc(F)cc1 [Compound G-3] | –
